Each structure is given as a SMILES string. In brackets after ≈: the same amount, converted by molar mass.

Some test systems named below: Escherichia coli AB94012; Pseudomonas putida; Enterococcus sp. S13; Streptococcus uberis; Bacillus cereus; Leuconostoc lactis; Listeria innocua; Escherichia coli D21; Bacillus megaterium Bm11; Micrococcus luteus Ml11; Escherichia coli W3110.
Assay in all cases: ≥ marks a high value that may be exact or a test limit, other limits are often not marked, values filed in µg/mL are converted to µM
Experiment [1] concerns Enterococcus faecalis P675.
The subject of experiment [2] is Staphylococcus aureus P1374.
In experiment [3] the test system is Pseudomonas aeruginosa AB93066.
Experiment [4] has as its system Bacillus subtilis AB91021.
Experiment [5] relates to Staphylococcus aureus P1369.
Experiment [6] has as its system Staphylococcus aureus AB94004.
In experiment [7] the test system is Staphylococcus aureus P838.
The subject of experiment [8] is Staphylococcus aureus P1381.
Experiment [9] deals with Bacillus thuringiensis AB92037.
The subject of experiment [10] is Staphylococcus aureus P1386.
Experiment [11] deals with Micrococcus luteus AB93113.
Experiment [12] has as its system Escherichia coli DH5alpha.
In experiment [13] the test system is Candida tropicalis AY91009.
Experiment [14] concerns Bacillus magaterium AB90008.
The subject of experiment [15] is Micrococcus luteus AB2010179.
The subject of experiment [16] is Staphylococcus aureus 16472.
Experiment [17] deals with Klebsiella oxytoca AB2010143.
Experiment [18] relates to Enterobacter cloacae AB2010162.
Experiment [19] relates to Salmonella enterica AB2010185.
The subject of experiment [20] is Staphylococcus aureus ATCC 29213.
The test system of experiment [21] is Enterococcus faecalis ATCC 29212.
Experiment [22] deals with Micrococcus luteus ATCC 9341.
Experiment [23] relates to Staphylococcus epidermidis ATCC 14990.
Experiment [24] relates to Staphylococcus aureus Cowan 1.
In experiment [25] the test system is Proteus vulgaris OX19 ATCC 6380.
Experiment [26] concerns Staphylococcus aureus JC-1.
The test system of experiment [27] is Bacillus subtilis ATCC 6633.
For experiment [28], the system named is Malassezia furfur KCTC 7744.
Experiment [29] concerns Candida albicans ATCC 90028.
The subject of experiment [30] is Shigella flexneri ATCC 203.
Experiment [31] concerns Trichosporon beigelii KCTC 7707.
Experiment [32] deals with Pseudomonas aeruginosa OT97.
For experiment [33], the system named is Trichophyton rubrum KCTC 6345.
In experiment [34] the test system is Burkholderia thailandensis.
For experiment [35], the system named is Staphylococcus aureus UL12.
For experiment [36], the system named is Bacillus anthracis Sterne 34F2.
The test system of experiment [37] is Bacillus subtilis ATCC 9372.

Take `CC(C)C[C@H](NC(=O)[C@H](CO)NC(=O)CNC(=O)[C@H](Cc1c[nH]c2ccccc12)NC(=O)[C@H](Cc1ccccc1)NC(=O)CN)C(=O)N[C@@H](Cc1c[nH]c2ccccc12)C(=O)N[C@@H](CCC(=O)O)C(=O)NCC(=O)N[C@H](C(=O)N[C@@H](CCCCN)C(=O)N[C@@H](CO)C(=O)N[C@H](C(=O)N[C@H](C(N)=O)C(C)C)C(C)C)C(C)C` [GFWGSLWEGVKSVV]: the MIC is no less than 32.2 µM in [1]; no less than 129 µM in experiment [2]; no less than 64.5 µM in experiment [3]; no less than 64.5 µM in experiment [4]; no less than 80.6 µM in experiment [5]; no less than 64.5 µM with Escherichia coli AB94012. Also, the minimum inhibitory concentration (MIC) in experiment [6] was 8.06 µM (≈ 12.5 µg/mL); in [7], no less than 32.2 µM; in experiment [8], no less than 322 µM; in [9] it was no less than 64.5 µM; in [10], no less than 161 µM; in experiment [11] it was no less than 64.5 µM.
With `CC[C@H](C)[C@H](N)C(=O)N[C@@H](Cc1ccccc1)C(=O)NCC(=O)N[C@@H](C)C(=O)N[C@H](C(=O)N[C@@H](Cc1c[nH]c2ccccc12)C(=O)N[C@@H](CCCCN)C(=O)NCC(=O)N[C@H](C(=O)N[C@@H](CO)C(=O)N[C@@H](CO)C(=O)N[C@@H](CC(C)C)C(=O)N[C@@H](CC(C)C)C(=O)O)[C@@H](C)CC)[C@@H](C)CC` [IFGAIWKGISSLL], the MIC in [12] was no less than 48 µM; in experiment [13] it was 16 µM (≈ 22.5 µg/mL); in experiment [6], no less than 48 µM; in experiment [14], no less than 36 µM; with Pseudomonas putida, no less than 87 µM; against Enterococcus sp. S13, no less than 36 µM. The MIC is 18 µM (≈ 25.3 µg/mL) in experiment [15]; 28 µM (≈ 39.3 µg/mL) in experiment [16]; no less than 87 µM in experiment [17]; no less than 87 µM in [18]; no less than 68 µM in [19].
For `CC[C@H](C)[C@H](N)C(=O)N[C@H](C(=O)NCC(=O)N[C@@H](Cc1cnc[nH]1)C(=O)N[C@@H](CC(C)C)C(=O)N[C@H](C(=O)N[C@@H](CCCCN)C(=O)N[C@H](C(=O)N[C@@H](C)C(=O)N[C@@H](CC(C)C)C(=O)NCC(=O)N[C@@H](CCSC)C(=O)N[C@@H](CC(C)C)C(=O)NCC(=O)N[C@@H](CC(C)C)C(N)=O)[C@@H](C)O)[C@@H](C)CC)[C@@H](C)CC` [IIGHLIKTALGMLGL], the MIC in experiment [20] is 12 µM (≈ 18.6 µg/mL); with Streptococcus uberis it was 25 µM (≈ 38.7 µg/mL); in experiment [21], 100 µM (≈ 155 µg/mL); in the experiment with Bacillus cereus, 25 µM (≈ 38.7 µg/mL); in experiment [22] it was 25 µM (≈ 38.7 µg/mL); in experiment [23], 25 µM (≈ 38.7 µg/mL). Further, the MIC was 12 µM (≈ 18.6 µg/mL) with Leuconostoc lactis and no less than 50 µM against Listeria innocua.
For the compound `CC[C@H](C)[C@H](NC(=O)[C@H](CCCCN)NC(=O)[C@@H](NC(=O)[C@@H](NC(=O)[C@H](CCC(N)=O)NC(=O)CNC(=O)[C@H](Cc1cnc[nH]1)NC(=O)[C@H](CCC(N)=O)NC(=O)[C@H](CC(N)=O)NC(=O)[C@H](CCC(N)=O)NC(=O)[C@@H](NC(=O)[C@H](CCCCN)NC(=O)[C@@H](N)Cc1ccccc1)C(C)C)C(C)C)C(C)C)C(=O)N[C@@H](Cc1ccccc1)C(=O)N[C@@H](Cc1cnc[nH]1)C(=O)N[C@@H](Cc1cnc[nH]1)C(=O)O` [FKVQNQHGQVVKIFHH], the minimal inhibitory concentration (MIC) in experiment [24] was no less than 1000 µM; in experiment [25], no less than 1000 µM; in the experiment with Escherichia coli D21, no less than 410 µM; in [26], no less than 94 µM; in the experiment on Bacillus megaterium Bm11, 1.95 µM (≈ 3.8 µg/mL); in [27], 20 µM (≈ 38.9 µg/mL). Moreover, the minimal inhibitory concentration (MIC) in [28] is 12.5 µM (≈ 24.3 µg/mL); in [29], 6.3 µM (≈ 12.3 µg/mL); in experiment [30], no less than 205 µM; in experiment [31], 6.3 µM (≈ 12.3 µg/mL); in [32], no less than 617 µM; in the experiment on Micrococcus luteus Ml11 it was 23 µM (≈ 44.8 µg/mL). The same compound returned a minimal inhibitory concentration (MIC) in [33] of 25 µM (≈ 48.7 µg/mL).
Turning to `CC[C@H](C)[C@H](N)C(=O)N[C@@H](CC(C)C)C(=O)NCC(=O)N1CCC[C@H]1C(=O)N[C@H](C(=O)N[C@@H](CC(C)C)C(=O)NCC(=O)N[C@@H](CC(C)C)C(=O)N[C@H](C(=O)N[C@@H](CO)C(=O)N[C@@H](CC(=O)O)C(=O)N[C@H](C(=O)N[C@@H](CC(C)C)C(=O)N[C@@H](CC(=O)O)C(=O)N[C@@H](CC(=O)O)C(=O)N[C@H](C(=O)N[C@@H](CC(C)C)C(=O)NCC(=O)N[C@H](C(=O)N[C@@H](CC(C)C)C(=O)O)[C@@H](C)CC)C(C)C)[C@@H](C)O)C(C)C)C(C)C` [ILGPVLGLVSDTLDDVLGIL], the MIC in [34] is no less than 50 µM; in experiment [35], no less than 180 µM; in [36] it was no less than 100 µM; in the experiment on Escherichia coli W3110, no less than 180 µM; in [37], no less than 50 µM.

For orientation: MIC means the least concentration at which growth counts as inhibited.

The record behind these values is DBAASP.
